Assay results reported in patent US20090053138A1, “Stabilized Aptamers to Platelet Derived Growth Factor and their Use as Oncology Therapeutics” (priority 2002, published 2009).
pKd: −log10 of the molar value. Strand notation (5' to 3'): a small letter for the sugar, then the base; units joined by * are phosphorothioate-linked, units joined directly phosphodiester-linked; [ ] holds rarer units or linkages, { } end groups; capitals alone tell only the bases. [HEG] = hexaethylene glycol spacer joining aptamer pieces; [invdT] = inverted (3'-3') thymidine; d = 2'-deoxy (DNA); m = 2'-O-methyl

Experiments:
PDGF BB [1] = molecular target: T1, PDGF BB (Homo sapiens, UniProt P01127); assay: Dot-blot binding assay, PDGF BB
T1 sequence (P01127 82-190 limits assumed): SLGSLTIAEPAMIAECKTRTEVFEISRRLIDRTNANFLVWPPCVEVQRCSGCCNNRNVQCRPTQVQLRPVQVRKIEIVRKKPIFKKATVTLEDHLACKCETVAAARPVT
Description: (§1) Binding data for the constituent aptamers and the multivalent aptamers were collected by dot-blot assays in which radio-labeled aptamer is incubated with protein target and then forced through a sandwich of nitrocellulose over nylon and the results shown in FIG. 22. Protein-associated radio-label is captured on the nitrocellulose membrane while the balance of the radio-label is captured on the nylon membrane. The radio-label data is collected on a phosphorimaging plate. […] The multivalent aptamers TK.131.012.A (SEQ ID NO. 9) and TK.131.012.B (SEQ ID NO. 10) were made synthetically.

VEGF = molecular target: T2, VEGF (Homo sapiens, UniProt P15692); assay: Dot-blot binding assay, VEGF
T2 sequence (P15692 27-191 isoform P15692-4): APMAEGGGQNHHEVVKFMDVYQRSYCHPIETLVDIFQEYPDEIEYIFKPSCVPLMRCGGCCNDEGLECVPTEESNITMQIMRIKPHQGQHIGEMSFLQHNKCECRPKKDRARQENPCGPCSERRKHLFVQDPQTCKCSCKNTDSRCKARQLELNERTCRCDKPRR
Description: as §1

PDGF BB [2] = molecular target: T1, PDGF BB; assay: ERK phosphorylation assay in 3T3 cells; type: cell-based, mouse; set-up: purchased R&D Systems, Minneapolis, Minn; conditions: 10 ng/ml PDGF-BB, 30 minutes
Description: ERK phosphorylation was used to test whether ARC124 (SEQ ID NO:11) retained its functionality after the incorporation of CpG motifs into the aptamer sequence. One hundred and fifty thousand 3T3 cells (a mouse fibroblast cell line which contains PDGF-R) were plated into an appropriate number of wells on a 12 well plate one day prior to the experiment and serum starved in 0.5% FBS overnight. Cells were treated with 10 ng/ml PDGF-BB (R&D Systems, Minneapolis, Minn.) in the presence or absence of CpG-island containing PDGF aptamers for 30 minutes. […] Protein concentration in cell lysates was determined using BIO-RAD protein assay reagent according to manufacturer's recommendations (Bio-Rad, Hercules, Calif.). Lysates were prepared by adding NuPage LDS Sample Buffer 4× with 0.1M DTT to a final concentration of 1× (invitrogen, Carlsbad, Calif.) and incubated at 70° C. for 7 minutes. Forty micrograms of total protein was loaded into each well of a NuPage 10%, Bis-Tris gel (Invitrogen, Carlsbad, Calif.). The gel was run at 100 mAmp for 1 hour. Gel was then transferred to a HyBond ECL nitrocellulose membrane (Amersham, Piscataway, N.J.) at 250 mAmp for 3 hours. After transfer, the nitrocellulose was blocked with 5% BSA (Sigma, St. Louis, Mo.) in PBS for one hour at room temperature. The nitrocellulose membrane was incubated with a p44/42 MAP Kinase antibody overnight at 4° C. […]

PDGF-AA = molecular target: T3, PDGF-AA (Homo sapiens, UniProt P04085); assay: Competition binding assay, PDGF-AA
T3 construct: purchased PeproTech, Rocky Hill, N.J
From the text: (§2) Next, a study was done to determine whether ARC126 cross reacted with PDGF-BB of species other than human. Competition binding assays were set up by dot blot analysis, as previously described, using human, rat, and mouse PDGF-BB (PeproTech, Rocky Hill, N.J.).
(§3) The competitive binding assay previously described was used to determine the in vitro binding affinity and selectivity of ARC594 for different PDGF isoforms. Different concentrations of unlabeled, competitor aptamer were titrated in separate reactions against a fixed (<0.1 nM) amount of ^32P-radiolabeled ARC594 in buffer containing a fixed amount (0.1 nM) of the aptamer's cognate target (PDGF-BB; PeproTech). UnPEGylated version of ARC594 was radiolabeled at the 5′ terminus by incubation with γ-^32P-ATP (ICN) and polynucleotide kinase (NEB). Binding reactions were carried out in phosphate-buffered saline (Cellgro) containing 0.2 mg/mL bovine serum albumin (NEB) and 0.02 mg/mL tRNA (Sigma). […] The data was expressed as the ratio of the counts per minute (CPM) of radioactivity due to ^32P-ARC594 bound to PDGF BB on the nitrocellulose membrane (CPMnitrocellulose or CPMnc) over the total CPM (CPMtotal=CPMnitrocellulose+CPMnylon).

PDGF-BB [3] = molecular target: T4, PDGF-BB (Rattus norvegicus, UniProt Q05028); assay: Competition binding assay, rat PDGF-BB
T4 construct: purchased PeproTech, Rocky Hill, N.J
T4 sequence (Q05028 66-174 limits assumed): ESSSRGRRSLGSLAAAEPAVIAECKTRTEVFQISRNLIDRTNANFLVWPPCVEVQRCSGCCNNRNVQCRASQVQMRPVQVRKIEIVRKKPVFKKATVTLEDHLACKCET
From the text: as §2

PDGF-BB [4] = molecular target: T5, PDGF-BB (Mus musculus, UniProt P31240); assay: Competition binding assay, mouse PDGF-BB
T5 construct: purchased PeproTech, Rocky Hill, N.J
T5 sequence (P31240 82-190 limits assumed): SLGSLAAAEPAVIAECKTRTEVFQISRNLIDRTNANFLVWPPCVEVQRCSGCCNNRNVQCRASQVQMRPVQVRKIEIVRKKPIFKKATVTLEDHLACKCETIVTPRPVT
From the text: as §2

PDGF BB [5] = molecular target: T1, PDGF BB; assay: Competition binding assay, PDGF-BB; set-up: purchased PeproTech, Rocky Hill, N.J; conditions: human PDGF-BB; read-out: Kd
Description: Binding reactions were carried out in phosphate-buffered saline (Cellgro, Herndon, Va.) containing 0.2 mg/mL bovine serum albumin (NEB) and 0.02 mg/mL tRNA (Sigma, St. Louis, Mo.). The reactions were equilibrated for a period of 15-30 minutes at room temperature, then filtered through a sandwich of nitrocellulose (Protran membrane, Perkin-Elmer, Boston, Mass.) and nylon (Hybond membrane, Amersham, Piscataway, N.J.) membranes to separate target bound aptamer from free aptamer.
as §2
as §3, with “(Sigma). The reactions were equilibrated for a period of 15-30 minutes at room temperature, then filtered through a sandwich of nitrocellulose (Protran membrane, Perkin-Elmer) and nylon (Hybond membrane, Amersham) membranes to separate target bound aptamer from free aptamer.” for “(Sigma).”

PDGF AB = PDGF AB (Homo sapiens, UniProt P01127); assay: Competition binding assay, PDGF-AB; set-up: purchased PeproTech, Rocky Hill, N.J
Sequence of PDGF AB (P01127 82-190 limits assumed, other chains not shown): as the sequence (P01127 82-190 limits assumed) above
From the text: as §2, §3

PDGF BB [6] = molecular target: T1, PDGF BB; assay: 3T3 cell proliferation assay (PDGF-BB induced); type: cell-based, rat; set-up: purchased PeproTech, Rocky Hill, N.J; conditions: after lyophilization and storage at −20 degrees celsius for 2 years
Description: 3T3 cells, a rat fibroblast cell line (ATCC, Manassas, Va.), were plated 3,000 cells/well in a 96 well plate one day prior to the start of the assay in 100 ul DMEM/10% FCS. The following day, cells were washed once with straight DMEM and then 75 ul DMEM/0.8% FCS was added to each well. […] Cells were incubated for 3 days. Following incubation 10 ul MTT (Promega, Madison, Wis.) was added to each well and incubated for an additional 1.5 hours. Media was then removed, 200 ul Isopropanol (2-propanol) was added to each well, cells were re-suspended thoroughly and absorbance at 570 nm was read on a 96 well plate reader.
(§4) 3T3 cells, which are derived from a rat fibroblast cell line (ATCC, Manassas, Va.), were used in a proliferation assay to test potency of modified ARC513 aptamers. 3T3 fibroblast cells have PDGF receptors on their cell-surface and respond to mitogen, e.g., PDGF stimulation by proliferation. The assay was performed as follows: 3T3 cells were plated 3,000 cells/well in a 96 well plate one day prior to the start of the assay in 100 ul DMEM/10% FCS. The following day, cells were washed once with straight DMEM and then 75 ul DMEM/0.8% FCS was added to each well. Then 25 ul of PDGF-BB (PeproTech, Rocky Hill, N.J.) at a 50 ng/ml final concentration was added to each well +/− aptamer condition to be tested. […] The functional PDGF aptamer dilutions usually consisted of 6 points in 2-fold serial dilutions.
(§5) Cells were incubated for 3 days. Following incubation 10 ul MTT (Promega, Madison, Wis.) was added to each well and incubated for an additional 1.5 hours. Media was removed, 200 μl Isopropanol (2-propanol) was added to each well, cells were re-suspended thoroughly and absorbance at 570 nm was read on a 96 well plate reader. The present example depicts the potency comparison of PDGF aptamer ARC: 513 to that of ARC 513 variants.
The 3T3 proliferation assay previously described was used to test potency of all PEG conjugated ARC513 variants described immediately above. The assay was performed as follows: 3T3 cells were plated 3,000 cells/well in a 96 well plate one day prior to the start of the assay in 100 ul DMEM/10% FCS. The following day, cells were washed once with straight DMEM and then 75 ul DMEM/0.8% FCS was added to each well. Then 25 ul of PDGF-BB (PeproTech, Rocky Hill, N.J.) at a 50 ng/ml final concentration was added to each well +/− aptamer condition to be tested. […] The functional PDGF aptamer dilutions usually consisted of 6 points in 2-fold serial dilutions.
as §5, with “ARC513” for “ARC: 513”, “PEGylated ARC513 aptamers.” for “ARC 513 variants.”
as §4, with “3T3” for “3T3 cells, which are derived from a rat fibroblast cell line (ATCC, Manassas, Va.), were used in a proliferation assay to test potency of modified ARC513 aptamers. 3T3”, “100 μl” for “100 ul”
as §5, with “[…]” for “μl”, “reader.” for “reader. The present example depicts the potency comparison of PDGF aptamer ARC: 513 to that of ARC 513 variants.”

**Q.** With “TK.131.012.B: PDGF/VEGF binding multivalent aptamer (SEQ ID NO: 10) (CAGGCTACGUGCAGUUUGAGAAGUCGCGCACGTAGAGCATCAGAAATGATCCTG; sugars from the 5' end d9 m21 d24, 3' [invdT], backbone not given here; further chemistry not fully specified)” as the substance, how does the pKd (PDGF BB [1]) read?
**A.** ~8.00

**Q.** And the pKd (VEGF)?
**A.** ~8.30

**Q.** “5′-mAmUmGmCmAmGmUmUmUmGmAmGmAmAmGmUmCmGmCmGmCmAmU-[3T]-3′ (SEQ ID NO: 7) (AUGCAGUUUGAGAAGUCGCGCAU; all 2'-O-methyl, [invdT] at 3' end, backbone not given here) [ARC245]” was tested. Which pKd (VEGF) did it give?
**A.** ~8.70

**Q.** Which results are given for “TK.131.012.A: PDGF/VEGF binding multivalent aptamer (SEQ ID NO:9) (CAGGCTACGAUGCAGUUUGAGAAGUCGCGCAUCGTAGAGCATCAGAAATGATCCTG; sugars from the 5' end d9 m23 d24, 3' [invdT], backbone not given here; further chemistry not fully specified)”?
**A.** pKd (PDGF BB [1]): ~8.00; pKd (VEGF): ~8.00

**Q.** For “CpGARC124short: PDGF aptamer ARC124 with CpG motif appended (SEQ ID NO:20) (AACGTTCGAGCAGGCTACGGCACGTAGAGCATCACCATGATCCTGC; synthetic aptamer; (1)..(11) phosphorothiate backbone between nucleotides 1-11; (44)..(46) phosphorothiate backbone between nucleotides 44-46)”, which “phosphorylation of ERK” value (PDGF BB [2]) is on record?
**A.** can block phosphorylation of ERK

**Q.** Which “binding to PDGF-AA” value (PDGF-AA) does the source give for “5′-(SEQ ID NO: 1)-HEG-(SEQ ID NO:2)-HEG-(SEQ ID NO:3)-3′-dT-3′ (chain 1 CAGGCUACG; chain 2 CGTAGAGCAUCA; chain 3 TGATCCUG; piece 1: 2'-fluoro at 6, 8, 2'-O-methyl at 9, 3' [HEG], other sugars and backbone not given here; piece 2: 2'-O-methyl at 5, 7, 12, 2'-fluoro at 10, 11, 3' [HEG], other sugars and backbone not given here; piece 3: 2'-fluoro at 5, 6, 7, 2'-O-methyl at 8, 3' [invdT], other sugars and backbone not given here) [ARC126]” here?
**A.** does not bind

**Q.** What about the “affinity for rat PDGF-BB” value (PDGF-BB [3]) of the same substance?
**A.** equal affinity

**Q.** What about the pKd (PDGF-BB [3]; read-out: affinity for rat PDGF-BB) of the same substance?
**A.** ~10.00

**Q.** What about the “affinity for mouse PDGF-BB” value (PDGF-BB [4]) of the same substance?
**A.** equal affinity

**Q.** And the pKd (PDGF-BB [4]; read-out: affinity for mouse PDGF-BB)?
**A.** ~10.00

**Q.** And the pKd (PDGF BB [1]; entirely DNA ARC126 used in the multivalent aptamer)?
**A.** ~10.00

**Q.** And the pKd (PDGF BB [5])?
**A.** ~10.00

**Q.** What about the pKd (PDGF AB) of the same substance?
**A.** ~10.00

**Q.** What about the “potency of legacy aptamers vs newly synthesized” value (PDGF BB [6]) of the same substance?
**A.** just as potent

**Q.** Which “phosphorylation of ERK” value (PDGF BB [2]) does the source give for “LongCpGARC124: PDGF aptamer ARC124 with CpG motif appended (SEQ ID NO:21) (dG*dT*dG*dA*dA*dC*dG*dT*dT*dC*dG*dA*dG*dCdAdGdGdCdTdAdCdGdGdCdAdCdGdTdAdGdAdGdCdAdTdCdAdCdCdAdTdGdAdTdCdCdT*dG*dC[invdT]; further chemistry not fully specified)” here?
**A.** can block phosphorylation of ERK
